Results from EP0535528A1, “Antibacterial 5-Nitro-1-methyl-imidazolyl-3-terbutyl-2-hydroxy-aryl-carbinols” (EURORESEARCH S.r.L., priority 1991, dated 1993).

Legend:
Helicobapter pylori = experiment: Inhibition halos of the bacterial growth (impregnated disks on agar); type: cell-based
Experimental: Comparison substance: Metronidazole Solubilization of the substances : All the substances to be studied are dissolved at room temperature in DMSO.
Some commercially available antibiogram disks are so impregnated with the above mentioned compounds that each disk has concentration equal to 10, 1, 0.1, 0.01 µg.
10 strains of Helicobapter pylori are used of recent clinical isolation.
Columbia Blood Agar Base is used, containing 5% of defibrinated horse blood, 2 % of calf serum, 2 vials of Vitox per liter of medium and Vancomicine (10 µg/ml) Trimetoprim lactate(5 µg/ml) and Polimixin B (2.5 U/ml).
0.1 ml of a suspension of the different used strains are uniformly distributed onto Petri plates, containing 20 ml of Columbia Blood Agar base, obtained by taking a sample, by means of a platinum loop, of different colonies from a 48 hours culture, grown in anaerobiosis jars with "Gas Pack", without a catalyst and diluted into a physiological solution.
4 disks per plate, previously impregnated with the substances under examination, are then placed onto the agar layer of each plate.
After 48 hours of anaerobiosis incubation, as above described, the inhibition halos of the bacterial growth, produced by the different activity of the substances inside the agar, are evaluated.

Salmonella typhimurium = experiment: Ames test, mutagenic activity; type: cell-based

## COc1cc(C(O)c2ncc([N+](=O)[O-])n2C)c(O)c(C(C)(C)C)c1 (stereo not shown) [EU11100, 5-nitro-1-methyl-imidazolyl-3-terbutyl-2-hydroxy-5-methoxy-phenyl-carbinol]
Helicobapter pylori; 10 strains, 0.1 µg/disk
  activity against the Helicobapter pylori strains used: still able to produce halos against all the strains used
Helicobapter pylori; average of 10 strains, 10 µg/disk
  Inhibition halo (mm), Average: 43.7 mm
Helicobapter pylori; strain 1, 0.01 µg/disk
  Inhibition halo (mm) at the concentration (µg/disk): 0 mm
Helicobapter pylori; strain 1, 0.1 µg/disk
  Inhibition halo (mm) at the concentration (µg/disk): 26 mm
Helicobapter pylori; strain 1, 1 µg/disk
  Inhibition halo (mm) at the concentration (µg/disk): 35 mm
Helicobapter pylori; strain 1, 10 µg/disk
  Inhibition halo (mm) at the concentration (µg/disk): 50 mm
Helicobapter pylori; strain 2, 0.01 µg/disk
  Inhibition halo (mm) at the concentration (µg/disk): 0 mm
Helicobapter pylori; strain 2, 1 µg/disk
  Inhibition halo (mm) at the concentration (µg/disk): 30 mm
Helicobapter pylori; strain 2, 10 µg/disk
  Inhibition halo (mm) at the concentration (µg/disk): 44 mm
Helicobapter pylori; strain 3, 0.01 µg/disk
  Inhibition halo (mm) at the concentration (µg/disk): 0 mm
Helicobapter pylori; strain 3, 0.1 µg/disk
  Inhibition halo (mm) at the concentration (µg/disk): 14 mm
Helicobapter pylori; strain 3, 1 µg/disk
  Inhibition halo (mm) at the concentration (µg/disk): 30 mm
Helicobapter pylori; strain 3, 10 µg/disk
  Inhibition halo (mm) at the concentration (µg/disk): 38 mm
Helicobapter pylori; strain 4, 0.01 µg/disk
  Inhibition halo (mm) at the concentration (µg/disk): 0 mm
Helicobapter pylori; strain 4, 0.1 µg/disk
  Inhibition halo (mm) at the concentration (µg/disk): 26 mm
Helicobapter pylori; strain 4, 1 µg/disk
  Inhibition halo (mm) at the concentration (µg/disk): 35 mm
Helicobapter pylori; strain 4, 10 µg/disk
  Inhibition halo (mm) at the concentration (µg/disk): 50 mm
Helicobapter pylori; strain 5, 0.01 µg/disk
  Inhibition halo (mm) at the concentration (µg/disk): 0 mm
Helicobapter pylori; strain 5, 0.1 µg/disk
  Inhibition halo (mm) at the concentration (µg/disk): 12 mm
Helicobapter pylori; strain 5, 1 µg/disk
  Inhibition halo (mm) at the concentration (µg/disk): 22 mm
Helicobapter pylori; strain 5, 10 µg/disk
  Inhibition halo (mm) at the concentration (µg/disk): 38 mm
Helicobapter pylori; strain 6, 0.01 µg/disk
  Inhibition halo (mm) at the concentration (µg/disk): 0 mm
Helicobapter pylori; strain 6, 0.1 µg/disk
  Inhibition halo (mm) at the concentration (µg/disk): 22 mm
Helicobapter pylori; strain 6, 1 µg/disk
  Inhibition halo (mm) at the concentration (µg/disk): 34 mm
Helicobapter pylori; strain 6, 10 µg/disk
  Inhibition halo (mm) at the concentration (µg/disk): 48 mm
Helicobapter pylori; strain 7, 0.01 µg/disk
  Inhibition halo (mm) at the concentration (µg/disk): 0 mm
Helicobapter pylori; strain 7, 0.1 µg/disk
  Inhibition halo (mm) at the concentration (µg/disk): 12 mm
Helicobapter pylori; strain 7, 1 µg/disk
  Inhibition halo (mm) at the concentration (µg/disk): 28 mm
Helicobapter pylori; strain 7, 10 µg/disk
  Inhibition halo (mm) at the concentration (µg/disk): 35 mm
Helicobapter pylori; strain 8, 0.01 µg/disk
  Inhibition halo (mm) at the concentration (µg/disk): 0 mm
Helicobapter pylori; strain 8, 0.1 µg/disk
  Inhibition halo (mm) at the concentration (µg/disk): 21 mm
Helicobapter pylori; strain 8, 10 µg/disk
  Inhibition halo (mm) at the concentration (µg/disk): 48 mm
Helicobapter pylori; strain 9, 0.01 µg/disk
  Inhibition halo (mm) at the concentration (µg/disk): 0 mm
Helicobapter pylori; strain 9, 1 µg/disk
  Inhibition halo (mm) at the concentration (µg/disk): 28 mm
Helicobapter pylori; strain 9, 10 µg/disk
  Inhibition halo (mm) at the concentration (µg/disk): 43 mm
Helicobapter pylori; strain 10, 0.01 µg/disk
  Inhibition halo (mm) at the concentration (µg/disk): 0 mm
Helicobapter pylori; strain 10, 0.1 µg/disk
  Inhibition halo (mm) at the concentration (µg/disk): 14 mm
Helicobapter pylori; strain 10, 10 µg/disk
  Inhibition halo (mm) at the concentration (µg/disk): 43 mm
Salmonella typhimurium; 1000 µg/capsule, in the absence of metabolic activation
  toxicity to the Salmonella strains: toxic
Salmonella typhimurium; general statement
  mutagenic activity: practically no mutagenic activity
Salmonella typhimurium; strain TA-100, without metabolic activation, 500 µg/capsule
  doubling of the base value: 1.95 times
Salmonella typhimurium; strains other than TA-100, without metabolic activation
  signal in other strains: do not give rise to any particular signal
Salmonella typhimurium; with metabolic activation, 250, 500 and 1000 µg/capsule
  spontaneous reversion of Salmonella: does not increase the spontaneous reversion of Salmonella
